We go through 90 compounds from a melting point compilation (Tetko et al.; mined from patent text by program, amines drawn as free bases though some values may be those of a salt).

Take `CCc1nn(C2CCCC2)c2cc(C(=O)Nc3ccc(C(=O)O)cc3)ccc12`: the melting point – broadly, the temperature of the solid-liquid transition – was 249 to 251 °C.

`NS(=O)(=O)OCCOc1ccccc1` returned a melting point of 89 to 91 °C.

As to `FC(F)(F)Sc1ccc2c(c1)C(=C1CCN(CC3CC3)CC1)c1ccccc1C=C2`, the melting point lay within 143 to 144 °C.

Turning to `N#Cc1ccc(-n2c(=O)oc3ccc(-c4ccc(F)cc4F)cc3c2=O)cc1`, the melting point lay within 203 to 204 °C.

`O=C(c1ccccc1)N1CCN(c2ccccc2)CCn2c1nc1ccccc12`: the melting point is 217 to 220 °C.

Take `CCOC(=O)c1c(S(=O)(=O)Nc2c(F)cccc2F)nn2c(C)cc(C)nc12`: the melting point lay in the range of 88 to 110 °C.

`COc1ccc(CN2CCC(NC(=O)OC(C)(C)C)CC2)cc1`: the melting point lay within 95 to 97 °C.

`COC(=O)NCC1=C(n2ccccc2=O)c2cc([N+](=O)[O-])ccc2OC1(C)C` displayed a melting point of 199 °C.

Take `O=C(Cn1cnc2ccccc21)Nc1ccc(-n2nc(C(F)(F)F)cc2C2CC2)cc1`: the melting point was 178 to 184 °C.

Compound `CC1=Nc2ccccc2N(Cc2ccccc2)C(=O)C1Cc1ccccc1` (stereo not given) gave a melting point of 140 to 141 °C.

In the case of `COc1ccc2c(c1)CNc1cc(Cl)ccc1O2`, the melting point was 111 to 113 °C.

Compound `CC(=O)NNc1nnc(-c2ccccc2)c(-c2ccccc2)n1` came in with a melting point of 166 to 168 °C.

With `COc1cc2c3c(n(C)c(=O)c2cc1OC)-c1cc2c(cc1C3=CCCCBr)OCO2`, the melting point lay in the range of 197 to 199 °C.

`CC(C)c1n[nH]c2c(Nc3cccc(Cl)c3)nc(Cl)nc12` displayed a melting point of 257 to 259 °C.

`Oc1ccc2oc(-c3ccc(O)c(F)c3)cc2c1` returned a melting point of 218 to 222 °C.

Take `CSc1c(C#N)nn(-c2c(Cl)cc(C(F)(F)F)cc2Cl)c1N`: the melting point lay in the range of 147 to 148 °C.

`COc1ccc(CCNc2nc(N)c3nc(-c4ccco4)oc3n2)cc1OC` displayed a melting point of 155 to 158 °C.

Take `O=C(Cn1c(-c2ccc(Cl)cc2)nc2cccnc21)N1CCSC1`: the melting point lay in the range of 215 to 218 °C.

`NS(=O)(=O)c1ccc(-c2nc(-c3ncn4c(C(F)(F)F)cc(-c5ccc(C(F)(F)F)cc5)nc34)no2)cc1`: the melting point is 303 °C.

Compound `COc1cc(OC)nc(Oc2ccc3ncccc3c2C(=O)O)n1` yielded a melting point of 195 to 198 °C.

As to `Cc1cccc(N2CCN(CCc3c(C)nc4ccc(C)cn4c3=O)CC2)c1`, the melting point was 115 to 116 °C.

In turn, `COC(=O)c1ccc2nc3c(c(C)nn3-c3ccccn3)c(Cl)c2c1` registered a melting point of 199 to 200 °C.

Compound `CCOC(=O)C1=C(C)NC(C)=C(c2nnco2)C1c1cccc(Cl)c1Cl` (stereo not given) registered a melting point of 187 to 189 °C.

As for `CCC1Cc2cc(OC)ccc2C2CCC3(C)C(=O)CC(C)C3C12` (stereo not given), the melting point fell in the range of 120 to 122 °C.

Turning to `CCOC(=O)C=Cc1cccc(Cl)c1Cl`, the melting point fell in the range of 69 to 70 °C.

As for `CC(C)C[C@@H](/C=C/CCO)NP(=O)(c1ccccc1)c1ccccc1`, the melting point came out at 124 °C.

As for `CCOC(=O)c1nc(-c2ccccc2)n(-c2ccc(C(F)(F)F)cc2Cl)n1`, the melting point was in the range of 107 to 108 °C.

On to `CC(=O)OCC(=O)Nc1ccc(-c2nc(C(=O)Nc3nccs3)c(-c3ccc(C)cc3)[nH]2)cc1`, for which the melting point was over 250 °C.

Compound `N#CC(Cc1cccc2c1OCO2)C(=O)O` (stereo not given) yielded a melting point of 118 °C.

Compound `O=C(O)c1ccc(-n2c(SCc3ccc(Cl)cc3)nc3ccc(Cl)cc32)cc1` returned a melting point of 265 to 266 °C.

`CCOC(=O)c1cn(CCCl)c2cc(Cl)ccc2c1=O`: the melting point was in the range of 208 to 210 °C.

For the compound `O=c1[nH]c(=O)n(C2CC(Cl)C(CCl)O2)cc1C=CBr` (stereo not given), the melting point was determined as 184 °C.

Turning to `Cc1ccc(O)c(NC(=O)c2ccc(OCCCCc3ccccc3)cc2)c1`, the melting point is 138 to 140 °C.

For the compound `CCCCc1nn(-c2ccccc2C(F)(F)F)c(=O)n1Cc1ccc(-c2cc(CCC)ccc2S(=O)(=O)NC(=O)c2ccccc2Cl)cc1F`, the melting point fell in the range of 79 to 82 °C.

In turn, `NC1=Nc2ccc(I)cc2C(c2ccccc2F)=NC1` had a melting point of 219 to 221 °C.

For `CCCCOc1cc(C(=O)O)cc([N+](=O)[O-])c1C(=O)c1ccc(Cl)cc1`, the melting point lay within 180 to 182 °C.

Regarding `CC(=CC(=O)O)C[N+](=O)[O-]`, the melting point came out at 85 °C.

For the compound `CCCNc1nc(N)c2ncn(C3CCCCC3)c2n1`, the melting point lay in the range of 155 to 156 °C.

In turn, `Cc1ccc(S(=O)(=O)C(CCl)Sc2ccc(Br)cc2)cc1` (stereo not given) gave a melting point of 82.5 to 84 °C.

In turn, `COC(=O)c1ccc(-c2ccc(Cl)s2)nc1` returned a melting point of 122 to 124 °C.

Turning to `CC(=O)c1cc2c(cc1Cl)C(C)(C)CC2(C)C`, the melting point was in the range of 69 to 71 °C.

Compound `CCOc1ccc([N+](=O)[O-])cn1` displayed a melting point of 85 to 88 °C.

Turning to `Cc1cc(Cl)nc(Br)c1`, the melting point turned out to be 76 °C.

Take `O=C(CCCCCCCCc1ccccc1)NO`: the melting point was 75 to 77 °C.

`O=C(O)c1ccccc1OC1CCOC1=O` (stereo not given) displayed a melting point of 113 to 115 °C.

As to `COc1ccc([C@@H]2Sc3cc(Oc4ccc(F)cc4)ccc3NC(=O)[C@@H]2O)cc1`, the melting point was 198 to 200 °C.

On to `N#CCCCCC(N)=O`, for which the melting point was in the range of 63 to 65 °C.

For `OC(c1ccccc1)c1cc2ccccc2cc1C(O)c1ccccc1` (stereo not given), the melting point was 145 °C.

Take `O=C1Nc2cc(Cl)c(Cl)cc2N2CCNC[C@H]12`: the melting point lay in the range of 136 to 138 °C.

As for `COc1ccc(Oc2c(C)cc(CC(=O)O)cc2C)cc1C(C)C`, the melting point was 118 to 120 °C.

The compound `COc1ccc2c(c1)nc(COc1ccc(CC3SC(=O)NC3=O)cc1)n2C` (stereo not given) returned a melting point of 209 to 210 °C.

On to `O=C(Cc1cc(F)ccc1[N+](=O)[O-])N1CCN(c2nsc3ccccc23)CC1`, for which the melting point was found to be 72 °C.

`COc1ccc(N2CCN(c3ccc(-n4cnnc4S)cc3)CC2)cc1` yielded a melting point of 232 °C.

Take `Cc1nc(-c2ccc(I)cc2)no1`: the melting point lay in the range of 121 to 122 °C.

`CC(C)c1cccc(C(C)C)c1NC(=O)C(N)Cc1ccc(OCc2ccccc2)cc1` (stereo not given) had a melting point of 117 to 122 °C.

`OC(c1ccccc1)c1ccc2nc3ccc(C(O)c4ccccc4)cc3c(-c3ccccc3)c2c1` (stereo not given) displayed a melting point of over 280 °C.

As to `COc1ccccc1-c1nc2nc(SC)nnc2c(=O)[nH]1`, the melting point came out at 268 °C.

With `Cc1oc(-c2ccc(C(F)(F)F)cc2)nc1COc1ccc(/C=C/Cn2oc(=O)[nH]c2=O)cc1`, the melting point fell in the range of 128 to 130 °C.

As to `COC(=O)c1cc(-c2ccccc2Cl)c(=O)n2ncc3ccc(Cl)cc3c12`, the melting point lay in the range of 200 to 202 °C.

For `NS(=O)(=O)c1cc2cc(C(=O)NCC(O)CO)sc2s1` (stereo not given), the melting point lay within 117 to 118 °C.

The compound `CC(C)C(=O)c1cn(C)cc(-c2cccc(C(F)(F)F)c2)c1=O` came in with a melting point of 104 to 105 °C.

Compound `CC(C)c1ccc(N(Cc2ccc(N(C)C)cc2)C(=O)C2CCCc3cc(O)ccc32)cc1` (stereo not given) gave a melting point of 169 to 171 °C.

Compound `CC(C)(C)OC(=O)NCc1ccc(-c2ccc(O)cc2)cc1` displayed a melting point of 147 to 149 °C.

For the compound `Cc1c(Cc2cccc(C(F)(F)F)c2)oc2cccc(O)c12`, the melting point was 91 to 92 °C.

For the compound `O=Cc1cccc(-c2cc3nccnc3[nH]2)c1`, the melting point was 268 to 270 °C.

Compound `COc1cc(CCBr)cc2c1OCO2` yielded a melting point of 78 to 79 °C.

As for `O=C(O)CCc1cc(C(=O)c2cccc(C(=O)O)c2)ccc1O`, the melting point is 197 to 200 °C.

Compound `COc1ccc(C(=O)Nc2ccc(C(C)(C)C#N)c(-c3cncnc3)c2)cc1OC` showed a melting point of 198 to 200 °C.

`CC(C)c1nn(-c2ccc(C(F)(F)F)cn2)cc1CCCOc1c(CC(=O)O)cnn1C` yielded a melting point of 146 to 148 °C.

Regarding `COCCOc1ccc(CCNC(=O)C(F)(F)F)cc1S(=O)(=O)N=CN(C)C`, the melting point is 134 to 136 °C.

`OC[C@H]1OC[C@@H](n2c(NC3CC3)nc3cc(Cl)c(Cl)cc32)C[C@@H]1O` gave a melting point of 98 to 99 °C.

`O=C1COCC2=C1C(c1ccc(F)c(Br)c1)C1=C(COC1=O)N2` (stereo not given): the melting point fell in the range of 166 to 168 °C.

`COc1ccc(C2=CCN(Cc3n[nH]c4c(F)cccc34)CC2)cc1` returned a melting point of 183 to 185 °C.

Turning to `OCCc1nccn1CCCCc1ccc(OCc2coc(/C=C/c3ccc(Cl)cc3)n2)cc1`, the melting point lay in the range of 127 to 128 °C.

For the compound `Cn1c(NC(=O)OCc2ccccc2)c(-c2ccccc2)c2cc(Cl)ccc21`, the melting point stood at 164 °C.

`O=C1Nc2ccc(I)cc2C1=NNC(=O)c1ccc(I)cc1` registered a melting point of 326 °C.

For `Cn1nc(S(C)(=O)=O)c(=O)c2ccccc21`, the melting point fell in the range of 202 to 204 °C.

Consider `O=C(c1ccco1)N1CCN[C@@H]2CCCC[C@@H]21`, for which the melting point lay in the range of 47 to 50 °C.

`C=C1c2ccccc2CC(=NO)Cc2ccccc21` displayed a melting point of 119 to 123 °C.

Regarding `CC(C)(O)CC1NC(=O)c2ccccc21` (stereo not given), the melting point was 122 to 123 °C.

The compound `Cc1c(-c2ccccc2)n(-c2c(F)c(F)c(F)c(F)c2F)c(-c2ccccc2)cc1=O` yielded a melting point of 192 to 194 °C.

As to `CCCCCCCCCCCCCCCCCCC(N)(CO)CO`, the melting point lay in the range of 76 to 80 °C.

Compound `O=C1C(c2ccccc2)=C(c2ccccc2)C(=O)N1Cc1cccc(F)c1` returned a melting point of 107 to 108 °C.

Compound `NC(=O)C(Nc1ccccc1C(=O)C1CC1)c1c(Cl)cccc1Cl` (stereo not given) returned a melting point of 196 °C.

In turn, `N#CCNC(=O)C(Cl)=C(Cl)Cl` had a melting point of 58 to 60 °C.

The compound `CCOC=NC1=C(C#N)C(c2ccc(F)c(Cl)c2)c2ccc3ccccc3c2O1` (stereo not given) displayed a melting point of 146 to 148 °C.

Regarding `CC(=O)Nc1cc2c(cc1[N+](=O)[O-])OC(C)(C)[C@@H](O)[C@@H]2NC(=O)CCCCl` (relative stereo), the melting point was 178 to 180 °C.

The compound `COc1ccc(-c2c(-c3ccc(S(C)(=O)=O)cc3)[nH]c3ccccc23)cc1` had a melting point of 218 to 220 °C.

The compound `Cc1cccc(COc2cccc3c2CN(C2CCC(=O)NC2=O)C3=O)c1` (stereo not given) came in with a melting point of 244 to 246 °C.

With `NC(=O)c1sc2nccc(N3CCCN(c4cccc([N+](=O)[O-])c4)CC3)c2c1N`, the melting point is 180 to 185 °C.
